Reference: patent publication US20150105252A1, “SUBSTITUTED PYRAZOLES AS HERBICIDES” (E I DU PONT DE NEMOURS AND COMPANY, priority 2013, published 2015)

Assays:
Assay in all cases: Test C postemergence
chickweed = assay type: in vivo, Stellaria media
Outline: (§1)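 Scores of 0 (no effect) to 100 (complete control) were assigned by eye after 13–15 days, comparing treated pots with controls. Soil-applied (preemergence) treatments went onto seeds in loam and sand; foliar (postemergence) treatments onto 1- to 4-leaf plants in peat medium.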

foxtail, giant = assay type: in vivo, Setaria faberii
Source text: (§2) Seeds of plant species selected from blackgrass (Alopecurus myosuroides), ryegrass, Italian (Italian ryegrass, Lolium multiflorum), wheat (winter wheat, Triticum aestivum), galium (catchweed bedstraw, Galium aparine), corn (Zea mays), crabgrass, large (large crabgrass, Digitaria sanguinalis), foxtail, giant (giant foxtail, Setaria faberii), johnsongrass (Sorghum halepense), lambsquarters (Chenopodium album), morningglory (Ipomoea coccinea), nutsedge, yellow (yellow nutsedge, Cyperus esculentus), pigweed (redroot pigweed, Amaranthus retroflexus), ragweed (common ragweed, Ambrosia elation), soybean (Glycine max), barnyardgrass (Echinochloa crus-galli), oilseed rape (Brassica napus), waterhemp (common waterhemp, Amaranthus rudis), oat, wild (wild oat, Avena fatua), kochia (Kochia scoparia), Surinam grass (Brachiaria decumbens), foxtail, green (green foxtail, Setaria viridis), goosegrass (Eleusine indica), bromegrass, downy (downy bromegrass, Bromus tectorum), nightshade (eastern black nightshade, Solanum ptycanthum), cocklebur (common cocklebur, Xanthium strumarium), cupgrass, woolly (woolly cupgrass, Eriochloa villosa), bermudagrass (Cynodon dactylon), sunflower, (common oilseed sunflower, Helianthus annuus), Russian thistle (Salsola kali), and velvetleaf (Abutilon theophrasti) were planted into a blend of loam soil and sand and treated preemergence with test chemicals formulated in a non-phytotoxic solvent mixture which included a surfactant.
(§3) At the same time, plants selected from these crop and weed species and also chickweed (common chickweed, Stellaria media), canarygrass (littleseed canarygrass, Phalaris minor), and deadnettle (henbit deadnettle, Lamium amplexicaule), were planted in pots containing Redi-Earth® planting medium (Scotts Company, 14111 Scottslawn Road, Marysville, Ohio 43041) comprising spaghnum peat moss, vermiculite, wetting agent and starter nutrients and treated with postemergence applications of test chemicals formulated in the same manner. Plants ranged in height from 2 to 18 cm (1- to 4-leaf stage) for postemergence treatments. Treated plants and controls were maintained in a greenhouse for 13 to 15 days, after which time all species were compared to controls and visually evaluated. Plant response ratings, summarized in Table C, are based on a scale of 0 to 100 where 0 is no effect and 100 is complete control. A dash (-) response means no test result.

velvetleaf = assay type: in vivo, Abutilon theophrasti; details: postemergence, 250 g ai/ha; scale 0 to 100 (0 no effect, 100 complete control)
Source text: as §2, §3

waterhemp = assay type: in vivo, Amaranthus rudis; details: postemergence, 250 g ai/ha; scale 0 to 100 (0 no effect, 100 complete control)
Source text: as §2, §3

ryegrass, Italian = assay type: in vivo, Lolium multiflorum; details: postemergence
Outline: as §1

ragweed = assay type: in vivo, Ambrosia elation; details: postemergence
Outline: as §1

oat, wild = assay type: in vivo, Avena fatua
Outline: as §1

galium = assay type: in vivo, Galium aparine
Source text: as §2, §3

lambsquarters = assay type: in vivo, Chenopodium album
Source text: as §2, §3

morningglory = assay type: in vivo, Ipomoea coccinea
Outline: as §1

kochia = assay type: in vivo, Kochia scoparia
Source text: as §2, §3

nutsedge, yellow = assay type: in vivo, Cyperus esculentus
Source text: as §2, §3

soybean = assay type: in vivo, Glycine max; details: postemergence
Source text: as §2, §3

pigweed = assay type: in vivo, Amaranthus retroflexus; details: postemergence
Outline: as §1

barnyardgrass = assay type: in vivo, Echinochloa crus-galli
Outline: as §1

[1] = Postemergence, 31 g ai/ha, visually evaluated after 13 to 15 days
[2] = postemergence, 62 g ai/ha, scale 0 to 100
[3] = postemergence, 250 g ai/ha, scale 0 to 100 (0 no effect, 100 complete control)
[4] = postemergence, 125 g ai/ha, scale 0 to 100, 0 no effect, 100 complete control
[5] = 250 g ai/ha, scale 0 to 100 (0 no effect, 100 complete control)
[6] = 125 g ai/ha, scale 0 to 100, 0 no effect, 100 complete control

CCNC(=O)c1cc(CC)n(Cc2ccnc(C(F)(F)F)c2)n1 [Compound 196]
Plant response rating (scale of 0 to 100 where 0 is no effect and 100 is complete control), Chickweed (chickweed; [1]): 50 | Chickweed plant response rating (chickweed; [2]): 60 | Plant response rating, Chickweed (chickweed; [3]): 80 | Plant response rating, Chickweed (chickweed; [4]): 80 | Plant response rating (scale of 0 to 100 where 0 is no effect and 100 is complete control), Foxtail, Giant (foxtail, giant; [1]): 5 | Foxtail, Giant plant response rating (foxtail, giant; [2]): 25 | Plant response rating, Foxtail, Giant (foxtail, giant; [3]): 20 | Plant response rating, Foxtail, Giant (foxtail, giant; [4]): 20 | Plant response rating, Velvetleaf (velvetleaf): 50 | Plant response rating, Waterhemp (waterhemp): 70 | Plant response rating, Ryegrass, Italian (ryegrass, Italian; [5]): 5 | Plant response rating, Ryegrass, Italian (ryegrass, Italian; [6]): 5 | Plant response rating, Ragweed (ragweed; [5]): 40 | Plant response rating, Ragweed (ragweed; [6]): 15 | Plant response rating (scale of 0 to 100 where 0 is no effect and 100 is complete control), Oat, Wild (oat, wild; [1]): 5 | Oat, Wild plant response rating (oat, wild; [2]): 5 | Plant response rating, Oat, Wild (oat, wild; [3]): 15 | Plant response rating, Oat, Wild (oat, wild; [4]): 10 | Plant response rating (scale of 0 to 100 where 0 is no effect and 100 is complete control), Galium (galium; [1]): 40 | Galium plant response rating (galium; [2]): 55 | Plant response rating, Galium (galium; [3]): 90 | Plant response rating, Galium (galium; [4]): 80 | Plant response rating (scale of 0 to 100 where 0 is no effect and 100 is complete control), Lambsquarters (lambsquarters; [1]): 60 | Lambsquarters plant response rating (lambsquarters; [2]): 65 | Plant response rating, Lambsquarters (lambsquarters; [3]): 75 | Plant response rating, Lambsquarters (lambsquarters; [4]): 75 | Plant response rating (scale of 0 to 100 where 0 is no effect and 100 is complete control), Morningglory (morningglory; [1]): 40 | Morningglory plant response rating (morningglory; [2]): 80 | Plant response rating, Morningglory (morningglory; [3]): 75 | Plant response rating, Morningglory (morningglory; [4]): 55 | Plant response rating (scale of 0 to 100 where 0 is no effect and 100 is complete control), Kochia (kochia; [1]): 80 | Kochia plant response rating (kochia; [2]): 85 | Plant response rating, Kochia (kochia; [3]): 90 | Plant response rating, Kochia (kochia; [4]): 90 | Plant response rating (scale of 0 to 100 where 0 is no effect and 100 is complete control), Nutsedge, Yellow (nutsedge, yellow; [1]): 5 | Nutsedge, Yellow plant response rating (nutsedge, yellow; [2]): 0 | Plant response rating, Nutsedge, Yellow (nutsedge, yellow; [3]): 10 | Plant response rating, Nutsedge, Yellow (nutsedge, yellow; [4]): 5 | Plant response rating, Soybean (soybean; [5]): 95 | Soybean plant response rating (soybean; [6]): 80 | Pigweed plant response rating (pigweed; 62 g ai/ha, scale 0 to 100): 60 | Plant response rating, Pigweed (pigweed; [5]): 70 | Plant response rating, Pigweed (pigweed; [6]): 70 | Plant response rating (scale of 0 to 100 where 0 is no effect and 100 is complete control), Barnyardgrass (barnyardgrass; [1]): 5 | Barnyardgrass plant response rating (barnyardgrass; [2]): 5 | Plant response rating, Barnyardgrass (barnyardgrass; [3]): 35 | Plant response rating, Barnyardgrass (barnyardgrass; [4]): 20
